We go through 3 sequences from patent US11091529B2, “Peptides having reduced toxicity that stimulate cholesterol efflux” (The Regents of the University of California, priority 2014, dated 2021).

The series relates to male, chow-fed C57Bl/6 mice. Nature of the series: Safety and TG elevating effects after IP injection of peptides (plasma CPK, ALT, AST, TG). The note with it: 300 mg/kg IP; for muscle toxicity as judged by CPK activity in plasma: compared with ATI-5261. An excerpt:
Since the position of positively charged amino acids near the lipid-water interface of class A α-helices is thought to mediate membrane interactions, we tested whether inverting the positions of positive and negative residues within ATI-5261 lessened the toxic response of the peptide at high doses. Panel A—Helical-wheel and net diagrams of ATI-5261 showing the positions of positively charged lysine (K) and arginine (R) at the lipid interface of the amphipathic α-helix (i.e. helical wheel diagrams on left). […] Plasma CPK, ALT, AST and TG (table) were assessed after 4 h. Values and means±SD, n=4.
Panel A—The positions of charged amino acids within the LeuATI-5261 peptide were switched to move the positive lysine and arginine residues away from the lipid-water interface of the amphipathic α-helix. Panel B— Safety and TG elevating effects were evaluated by injecting (IP) peptides (300 mg/kg) into male, chow-fed C57Bl/6 mice. Values are means SD, n=4. […] J774 macrophages were labeled with [3H]cholesterol and treated with (red, right side bars) and without (blue, left side bars) cAMP to modulate ABCA1 expression.
Panel A—Safety and TG elevating effects were evaluated by injecting (IP) peptides (300 mg/kg) into male, chow-fed C57Bl/6 mice. Values are means SD, n=4. […] Panel B-ABCA1-dependent cholesterol efflux activity of peptides determined using J774 macrophages labeled with [3H]cholesterol. Results are expressed as the ABCA1 component of efflux.
Peptides or peptidomeimetics of the invention can be evaluated for toxicity using known assays. […] Safety chemistry panels including plasma alanine aminotransferase (ALT), aspartate amino transferase (AST), and creatine kinase (CK) can then be determined in the blood. […]
Since the position of positively charged amino acids near the lipid-water interface of class A α-helices is thought to mediate membrane interactions, we tested whether inverting the positions of positive and negative residues within ATI-5261 lessened the toxic response of the peptide at high doses. […] Plasma CPK, ALT, AST and TG (table) were assessed after 4 h as described in FIGS. 4-6. […]

Where no end group is shown, it is not given here.

Turning to EVRSKLEEWFAAFREFAEEFLARLNS [T5594-4], the “muscle toxicity as judged by CPK activity in plasma” value is recorded as “greatly reduced muscle toxicity”.
For the sequence KVESELREWLAALEKLARRLLAELES [T6023-2], the “cytotoxicity (plasma CPK, ALT, AST)” value (plasma after 4 h, n=4) was “no increase in muscle toxicity or elevated plasma enzymes compared to vehicle alone”.
EVRSKLEEWFAAFREFAEEFLARL [T5766-5]: the “muscle toxicity as judged by CPK activity in plasma” value is given as “greatly reduced muscle toxicity”.
